# Reference: article PMC10089224, “A macrocyclic peptide inhibitor traps MRP1 in a catalytically incompetent conformation” (Proceedings of the National Academy of Sciences of the …, 2023)
# “Also recorded” adds a separate entry of the source. Where a SMILES comes first, the peptide text is derived from it. Bridges are numbered along the chain shown (N, C = ends). [ ]: non-standard residue; d: D form.
# Experiments:
# bMRP1 = molecular target: T1, bMRP1 (Bos taurus, UniProt Q8HXQ5); assay: ATPase activity of detergent-solubilized bMRP1, inhibition by CPI1 (basal and LTC4-stimulated); assay type: biochemical, bovine
# T1 construct: eGFP (C, cleaved yes); PreScission protease site (remnant after cleavage) (C); made in house; host or cells: HEK293S GnTI- cells infected with baculovirus (BacMam) made in Sf9 cells
# Method: All values reported as the mean ± standard error (SE) of three separate measurements. The statistical significance was calculated using unpaired, parametric, two-sided t tests. Labels: not significant (n.s.), P < 0.05 (*), P < 0.01 (**), P < 0.001 (***) P < 0.0001 (****). […] Rates of ATP hydrolysis were normalized to maximal activity. Data were fit to a modified version of the quadratic binding equation to account for free ligand depletion (Materials and Methods).
# All protein purification steps were performed on ice or at 4 °C. Thawed cell pellets were resuspended with a handheld homogenizer (Polytron PT1200E) in a solution of 300 mM NaCl, 50 mM HEPES pH 8.0, 2 mM MgCl2, 2 mM dithiothreitol (DTT), and 20% glycerol with DNase I and protease inhibitors (1 µg/mL aprotinin, 0.6 mM benzamidine, 1 µg/mL leupeptin, 1 µg/mL pepstatin A, 1 mM phenylmethylsulfonyl fluoride, and 100 µg/mL soy trypsin inhibitor). Membranes were solubilized for 1.5 h by addition of 2% lauryl maltose neopentyl glycol and 0.2% cholesteryl hemisuccinate, after which insoluble material was removed by centrifugation for 40 min at 75,000 × g. Supernatant was mixed with GFP nanobody-conjugated Sepharose 4 Fast Flow resin (GE Healthcare) for 1.5 h, after which the slurry was packed into a column and washed with a solution of 0.06% digitonin, 150 mM NaCl, 50 mM HEPES pH 8.0, 2 mM MgCl2, 2 mM DTT, and 5% glycerol. PreScission protease was added to the column at a concentration of 0.35 mg/mL for 3 h to liberate MRP1 or Pgp from the GFP-nanobody resin. Eluate was passed through a glutathione sepharose resin to remove PreScission protease and concentrated with a 100 kDa molecular weight cutoff centrifugal filter. Concentrate was loaded onto a GE Healthcare Superose 6 size exclusion column equilibrated in 0.06% digitonin, 150 mM KCl, 50 mM Tris pH 8.0, 2 mM MgCl2, and 2 mM DTT. Peak fractions were collected, pooled, and concentrated for ATPase assays or freezing cryo-EM grids.
# ATPase activity was measured by recording the rate of NADH consumption during ATP regeneration from ADP. […] ATPase activity was quantified by calculating the mean and SEM of at least three separate measurements from a single protein purification for each of bMRP1, hMRP1, and hPgp. Data were fit by nonlinear regression to the Michaelis–Menten equation using GraphPad Prism (Dotmatics).
# 0 = [R]tot × [L]tot - ([L]tot + [R]tot + Ki)[R·L] + [R·L]^2,
# Range normalization factor = (Vmax - Vmin)
# hMRP1 = assay: ATPase activity of detergent-solubilized hMRP1, inhibition by CPI1; assay type: biochemical, human; conditions: Fig. 1C: 1 µM hMRP1, 4 mM ATP, CPI1 25-fold molar excess
# Method: (§1) Fig. 1. Identification of an MRP1-specific inhibitor. (A) Selection strategy for novel cyclic peptide MRP1 ligands. eGFP: enhanced green fluorescent protein; Nb: anti-eGFP nanobody. (B) CPI1 composition. The first residue in the sequence (Ac^DY1, yellow) is covalently bonded to the 17th residue (C17, green) via a thioether linkage. […] All values reported as the mean ± standard error (SE) of three separate measurements. The statistical significance was calculated using unpaired, parametric, two-sided t tests. Labels: not significant (n.s.), P < 0.05 (*), P < 0.01 (**), P < 0.001 (***) P < 0.0001 (****). […] (D) Dose–response curves of the basal and LTC4-stimulated ATPase activity of bMRP1. Rates of ATP hydrolysis were normalized to maximal activity. Data were fit to a modified version of the quadratic binding equation to account for free ligand depletion (Materials and Methods).
# (§2) Bovine and human MRP1, as well as human Pgp, were expressed and purified as described previously. […]
# (§3) ATPase activity was measured by recording the rate of NADH consumption during ATP regeneration from ADP. […] NADH consumption was measured by monitoring the rate of NADH fluorescence depletion (λex/λem 340/445 nm) using an Infinite M1000 microplate reader (Tecan) at 28 °C. […]
# Pgp = assay: ATPase activity of detergent-solubilized Pgp, inhibition by CPI1; assay type: biochemical, human; conditions: Pgp 0.5 µM, 4 mM ATP, CPI1 25-fold molar excess; mean ± SE of three separate measurements
# Method: as §1, §2, §3
# P-glycoprotein (Pgp) = conditions: ref [26]–[28]; cited from earlier work
# Description: Abrogation of cancer drug resistance by pharmacological inhibition of MRP1 has long been pursued ([10]). […] However, the majority of available MRP1 inhibitors are repurposed from other drug discovery efforts and thus have inherent off-target issues ([24], [25]).
# T1 sequence (Q8HXQ5 whole entry): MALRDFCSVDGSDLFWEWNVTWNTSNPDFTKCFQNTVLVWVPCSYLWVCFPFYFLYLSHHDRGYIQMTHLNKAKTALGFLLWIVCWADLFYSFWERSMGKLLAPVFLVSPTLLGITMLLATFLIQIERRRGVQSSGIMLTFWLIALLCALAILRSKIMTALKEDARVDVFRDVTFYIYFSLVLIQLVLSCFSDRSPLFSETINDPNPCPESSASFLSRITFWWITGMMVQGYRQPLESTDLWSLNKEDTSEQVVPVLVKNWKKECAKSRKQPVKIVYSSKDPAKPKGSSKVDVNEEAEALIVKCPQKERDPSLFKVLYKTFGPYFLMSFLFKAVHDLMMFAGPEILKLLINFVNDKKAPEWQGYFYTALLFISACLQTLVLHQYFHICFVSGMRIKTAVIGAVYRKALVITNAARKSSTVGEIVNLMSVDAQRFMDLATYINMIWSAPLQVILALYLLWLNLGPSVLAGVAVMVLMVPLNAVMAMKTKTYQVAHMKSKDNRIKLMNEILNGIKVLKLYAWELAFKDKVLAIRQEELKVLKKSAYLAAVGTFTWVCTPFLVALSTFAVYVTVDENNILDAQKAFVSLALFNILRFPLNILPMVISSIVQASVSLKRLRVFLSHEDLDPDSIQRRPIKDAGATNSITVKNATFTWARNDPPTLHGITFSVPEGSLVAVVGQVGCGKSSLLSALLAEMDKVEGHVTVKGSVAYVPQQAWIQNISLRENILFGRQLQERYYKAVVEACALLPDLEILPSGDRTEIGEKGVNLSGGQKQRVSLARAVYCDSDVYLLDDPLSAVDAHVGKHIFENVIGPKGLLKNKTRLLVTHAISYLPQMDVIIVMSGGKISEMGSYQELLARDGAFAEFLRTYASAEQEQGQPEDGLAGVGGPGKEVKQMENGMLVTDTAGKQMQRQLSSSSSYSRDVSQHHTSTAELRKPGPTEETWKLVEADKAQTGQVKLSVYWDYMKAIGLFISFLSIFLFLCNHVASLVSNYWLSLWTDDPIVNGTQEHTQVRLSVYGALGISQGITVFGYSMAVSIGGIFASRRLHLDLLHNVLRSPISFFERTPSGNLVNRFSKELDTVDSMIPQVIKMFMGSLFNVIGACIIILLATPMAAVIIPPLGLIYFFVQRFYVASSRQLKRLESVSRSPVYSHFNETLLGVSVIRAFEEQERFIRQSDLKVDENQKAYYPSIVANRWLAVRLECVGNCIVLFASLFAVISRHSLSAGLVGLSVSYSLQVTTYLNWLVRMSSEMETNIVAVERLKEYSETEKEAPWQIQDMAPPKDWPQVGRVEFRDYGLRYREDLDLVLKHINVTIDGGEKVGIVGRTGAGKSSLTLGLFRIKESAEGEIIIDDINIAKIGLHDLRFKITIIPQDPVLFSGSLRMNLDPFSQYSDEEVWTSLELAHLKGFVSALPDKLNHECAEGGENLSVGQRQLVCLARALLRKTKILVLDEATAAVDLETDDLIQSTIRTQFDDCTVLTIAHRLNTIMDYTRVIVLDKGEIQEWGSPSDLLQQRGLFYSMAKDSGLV
Ki (bMRP1),"affinity of CPI1 for MRP1 (bMRP1; approximate, Fig. 1D, compared with LTC4)","mode of inhibition (in words) (bMRP1; with respect to LTC4, inferred from shared binding site in structure and affinity)",Structure (SMILES),"inhibition of ATPase activity (in words) (bMRP1; bMRP1, Fig. 1C: 1 µM bMRP1, 4 mM ATP, CPI1 25-fold molar excess)",inhibition of ATPase activity (in words) (hMRP1),inhibition of Pgp (in words) (Pgp),inhibition of P-glycoprotein (in words) (P-glycoprotein (Pgp))
0.07 ± 0.029 µM,~ 100 nM,potent competitive inhibitor of LTC4,CC(C)C[C@@H]1NC(=O)[C@H](CC(N)=O)NC(=O)CNC(=O)[C@H](Cc2c[nH]c3ccccc23)NC(=O)[C@H](Cc2ccccc2)NC(=O)[C@@H](Cc2ccc(O)cc2)NC(=O)CSC[C@@H](C(=O)O)NC(=O)[C@H]([C@@H](C)O)NC(=O)[C@H](CO)NC(=O)[C@H](CC(=O)O)NC(=O)[C@H](Cc2ccccc2)NC(=O)[C@H](CCC(N)=O)NC(=O)[C@H](CCC(=O)O)NC(=O)[C@H](Cc2ccc(O)cc2)NC(=O)[C@H](Cc2ccc(O)cc2)NC(=O)[C@H](Cc2c[nH]c3ccccc23)NC(=O)[C@H](Cc2c[nH]cn2)NC1=O [CPI1] ({CH2CO}-[dY]FWGNLHWYYEQFDSTC-OH; thioether N-17; C-terminus assumed),inhibited the ATPase activity of both human and bovine MRP1,robust inhibition of hMRP1 ATPase activity,only modest inhibition of Pgp when applied at a 25-fold molar excess; also recorded: minimal inhibition of a related multidrug transporter P-glycoprotein,
,,,O=C(NCCCN1CCOCC1)c1cnn2c(-c3ccccc3)cc(-c3ccccc3)nc12 [Reversan],,,,also inhibit P-glycoprotein
